Results: paper PMC4387272, “Pharmacokinetic, pharmacodynamic and biomarker evaluation of transforming growth factor-β receptor I kinase inhibitor, galunisertib, in phase 1 study in patients with advanced cancer” (Investigational new drugs, 2014)
Like-named read-outs stand apart in the source and are kept apart here.

Tests used:
MDC/CCL22 = experiment: Multi-analyte immunoassay panel (MAIP) of plasma proteins; type: in vivo, Human; settings: Part A and Part B, data not shown
Description: Plasma samples were analyzed for PD assessments by using a multi-analyte immunoassay panel (MAIP) (Myriad RBM, Austin, TX). The MAIP measurements included 89 plasma proteins. These proteins were evaluated at baseline and during the first cycle of treatment.
MDC/CCL22 is associated with modulating T regulatory cells and it may be involved in the activation of antigen-presenting cells. Whether such levels confer a better prognosis remains to be assessed. The lack of a change in MDC/CCL22 may perhaps indicate that this chemokine is not affected by galunisertib, but long-term examinations will be needed to further confirm this initial impression. Other plasma proteins were also found to be at different levels for patients treated with ≥6 cycles or ≤6 cycles.

[1] = Non-compartmental plasma pharmacokinetics of galunisertib in patients (LC-MS/MS); type: in vivo, Human; settings: for Cmax / AUC(0-inf): po
Description: Human plasma samples obtained during this study were analyzed at PharmaNet USA, Inc. Princeton, New Jersey, USA. The samples were analyzed for galunisertib levels using 2 validated liquid chromatography with tandem mass spectrometry methods. For the high-range method (PharmaNet USA, Inc. SOP TM.589), the lower limit of quantification was 5.000 ng/mL and the upper limit of quantification was 1000.000 ng/mL. The intra-assay accuracy (% relative error) during validation ranged from 1.800 to 10.222 %. The intra-assay precision (% relative standard deviation) during validation ranged from 3.119 to 18.389 %. Samples above the limit of quantification were diluted to yield results within the calibrated range. Samples below the lower limit of quantification using the high-range method were reanalyzed using the low-range method. For the low-range method (PharmaNet USA, Inc. SOP TM.563), the lower limit of quantification was 0.050 ng/mL and the upper limit of quantification was 10.000 ng/mL. The intra-assay accuracy during validation ranged from −5.080 to −2.000 %. The intra-assay precision during validation ranged from 4.404 to 12.245 %.
All patients who received at least 1 dose of galunisertib and had samples collected were subjected to PK analyses. The PK parameters for galunisertib were computed by standard non-compartmental methods of analysis using Win Nonlin Professional Edition (version 5.3) on a computer that met or exceeded the minimum system requirements for this program with appropriate and validated software. The parameters reported from the non-compartmental analyses included the maximum plasma concentration (Cmax), area under the curve from zero to 24 h (AUC(0–24)), AUC from zero time to infinity (AUC(0–∞)), half-life volume of distribution (Vd) and clearance (CL).
Clinical benefit in this study has been defined as a patient with either a complete response (CR), partial response (PR), and stable disease (SD) ≥6 cycles. MAIP results from plasma samples taken at baseline were compared between patients completing >6 cycles and ≤6 cycles using ANOVA. The analysis included controlling the false discovery rate to 30 % using the Benjamini-Hochberg method. Boxplots showing the distributions at baseline of the potentially prognostic markers are provided. Observed TGF-β-stimulated pSMAD2 (pSMAD2^+) in PBMCs was normalized by TGF-β-stimulated tSMAD2 [(tSMAD2^+) ^0.6[9, 10]] prior to determining the minimum normalized pSMAD2^+ and calculating percentage inhibition post-baseline for each patient. Baseline and minimum post-baseline values for each patient together with maximum percentage inhibition are presented on a line and scatter plot for each patient in Cohort 3 and summary statistics by time point provided from a standard mixed effects regression model, fitting log normalized pSMAD2^+ to the fixed effects of log baseline normalized pSMAD2^+, nominal time point, dose and their interaction and patient as a random effect.
• Part A (Fig. 1 and Table 2): Non-compartmental PK analysis was performed on 37 of the 39 patients treated in Part A: n=3 in Cohort 1 (40 mg/day); n=4 in Cohort 2 (80 mg/day); n=15 in Cohort 3 (160 mg/day); n=6 in Cohort 4 (240 mg/day); n=9 in Cohort 5 (300 mg/day). […] The terminal half-life was approximately 8 h. At steady state, on Day 14, the median time to maximum concentration (tmax,ss) ranged from 0.5 to 2 h post dose, independent of dose. Formal assessment of time-linear kinetics was not possible, regardless of whether or not the observed exposures of AUC(0–∞) Day 1 and AUC(0–∞) Day 14 were similar. […] Both the maximum observed plasma concentration at steady state (Cmax,ss) and exposure increased with dose as indicated from the statistical analysis of the PK parameters. […] A population PK model was developed based on data in Cohorts 1 through 5 [7]. […] PK profiles of galunisertib following administration of 160 mg/day (Cohort 6) and 300 mg/day (Cohort 7) on Days 6 and 7 were similar.

[2] = Part A, 240 mg/day oral BID, day 14 steady state, Cycle 2, individual patients
[3] = Part A, 7.5-fold dose range, power model

Compound: Cc1cccc(-c2nn3c(c2-c2ccnc4ccc(C(N)=O)cc24)CCC3)n1 [galunisertib]
- post-treatment plasma levels of MDC/CCL22 (MDC/CCL22): did not show a change
- AUC0,∞ individual parameters (n <3) [1, 2]: 2500- ^a ng*h/mL
- Cmax, ss individual parameters (n <3) [1, 2]: 610- ^a ng/mL
- PK profile in patients on enzyme-inducing anti-epileptic medication versus other patients ([1]; Part A, 3 patients (2 in Cohort 3, 1 in Cohort 4)): do not appear to differ
- accumulation over the 14-day BID dosing regimen ([1]; Part A, 5 cohorts): no accumulation
- estimated ratio of geometric means for AUC(0-∞) between 40 and 300 mg daily [1, 3]: 5.61
- estimated ratio of geometric means for Cmax,ss between 40 and 300 mg daily [1, 3]: 3.99
- PK profile with co-administration of proton pump inhibitors ([1]; Part A, 14 patients on PPI, Day 14): do not appear to be altered
- fold increase of AUC(0–∞) for a doubling of dose ([1]; Part A, 40–300 mg, power model): 1.81 fold
- fold increase of Cmax,ss for a doubling of dose ([1]; Part A, 40–300 mg, power model): 1.61 fold
- duration of measurable plasma concentrations ([1]; Part A, oral, patients): at least 48 h
- effect of co-administration of lomustine on galunisertib PK profile ([1]; Part B, 160 mg/day and 300 mg/day, Days 6 and 7): did not appear to alter
- dose proportionality of PK ([1]; any doubling of dose within 40–300 mg, particularly AUC(0-∞)): dose-proportional PK
- Tmax ([1]; human, plasma, oral, Part A, steady state, Day 14, post dose, independent of dose, read-out: median time to maximum concentration (tmax,ss)): 1800 to 7200 s
- Cmax ([1]; human, plasma, 40 mg/day, Part A, 40 mg/day oral BID, day 14 steady state, Cycle 1, patients, read-out: Cmax, ss mean (% CV)): 220 ng/mL
- Cmax ([1]; human, plasma, 80 mg/day, Part A, 80 mg/day oral BID, day 14 steady state, Cycle 1, patients, read-out: Cmax, ss mean (% CV)): 350 ng/mL
- AUC(0-inf) ([1]; human, plasma, 160 mg/day, Part A, 160 mg/day oral BID, day 14 steady state, Cycle 1, patients, read-out: AUC0,∞ mean (% CV)): 2140 ng·h/mL
- Cmax ([1]; human, plasma, 160 mg/day, Part A, 160 mg/day oral BID, day 14 steady state, Cycle 1, patients, read-out: Cmax, ss mean (% CV)): 630 ng/mL
- AUC(0-inf) ([1]; human, plasma, 160 mg/day, Part A, 160 mg/day oral BID, day 14 steady state, Cycle 2, patients, read-out: AUC0,∞ mean (% CV)): 2430 ng·h/mL
- Cmax ([1]; human, plasma, 160 mg/day, Part A, 160 mg/day oral BID, day 14 steady state, Cycle 2, patients, read-out: Cmax, ss mean (% CV)): 790 ng/mL
- AUC(0-inf) ([1]; human, plasma, 240 mg/day, Part A, 240 mg/day oral BID, day 14 steady state, Cycle 1, patients, read-out: AUC0,∞ mean (% CV)): 3060 ng·h/mL
- Cmax ([1]; human, plasma, 240 mg/day, Part A, 240 mg/day oral BID, day 14 steady state, Cycle 1, patients, read-out: Cmax, ss mean (% CV)): 660 ng/mL
- AUC(0-inf) ([1]; human, plasma, 240 mg/day, Part A, 240 mg/day oral BID, day 14 steady state, Cycle 2, individual patients, read-out: AUC0,∞ individual parameters (n <3)): 2900 ng·h/mL
- Cmax ([1]; human, plasma, 240 mg/day, Part A, 240 mg/day oral BID, day 14 steady state, Cycle 2, individual patients, read-out: Cmax, ss individual parameters (n <3)): 520 ng/mL
- AUC(0-inf) ([1]; human, plasma, 300 mg/day, Part A, 300 mg/day oral BID, day 14 steady state, Cycle 1, patients, read-out: AUC0,∞ mean (% CV)): 3730 ng·h/mL
- Cmax ([1]; human, plasma, 300 mg/day, Part A, 300 mg/day oral BID, day 14 steady state, Cycle 1, patients, read-out: Cmax, ss mean (% CV)): 990 ng/mL
- AUC(0-inf) ([1]; human, plasma, 300 mg/day, Part A, 300 mg/day oral BID, day 14 steady state, Cycle 2, patients, read-out: AUC0,∞ mean (% CV)): 2930 ng·h/mL
- Cmax ([1]; human, plasma, 300 mg/day, Part A, 300 mg/day oral BID, day 14 steady state, Cycle 2, patients, read-out: Cmax, ss mean (% CV)): 800 ng/mL
- half-life ([1]; human, plasma, Part A, oral, patients, read-out: terminal half-life (converted)): ~8 h
- between-patient coefficient of variation for AUC(0-∞) at steady state ([1]; pooled across the 5 cohorts): 42%
- between-patient coefficient of variation for Cmax,ss ([1]; pooled across the 5 cohorts): 55%
- within-patient coefficient of variation for AUC(0-∞) at steady state ([1]; pooled across the 5 cohorts): 29%
- within-patient coefficient of variation for Cmax,ss ([1]; pooled across the 5 cohorts): 31%
